# Values joined by “and” are separate entries in the source; they are usually repeats but may differ in a detail not shown here. Equal entries are not always repeated.
# Tests used:
# [1] = system: Normal bone marrow (BM) cells; assay: MTT cytotoxicity, normal bone marrow cells; type: cell-based, mouse; conditions: five days, read-out: EC50 (50% reduction in cell viability)
# Experimental: (§1) The cytotoxic activity of various phospho-derivatives of branched-chain fatty acids (DP-BFAs) was assayed in vitro in cell cultures that include normal and malignant cell types. The following cell systems were used: • Primary fibroblasts (human) • Normal bone marrow (BM) cells (mouse) • Primary bronchial epithelial cells (human, from Clonetics, cat. no. CC-2541) • Caco-2—colon cancer cell line (human, ATTC, HTB-37) • C6 glioma cell line (rat, ATCC, CRL-2199) • Neuro2a—neuroblastoma cell line (mouse, ATCC, CCL-131) • SKBR-3—breast cancer cell line (human, ATTC, HTB-30) • HL60—myeloid leukemia cell line (human, ATCC, CCL-240) • U937—myeloid leukemia cell line (human)
# (§2) Cells were seeded in a microtiter plate in MEM containing 2 mM L-glutamine, 100 units/ml penicillin, 100 ug/ml streptomycin and 10% FCS at 37° C. The cultured cells were incubated, during their linear growth phase in the absence (control group) or presence of various DP-BFAs as indicated. The final concentrations of the tested DP-BFAs ranged from 1.5 to 200 microMolars. At the end of the incubation period, which was five days for the bone marrow cells and three days for all the other cell lines, the cytotoxic effect of the added P-BFA on the cells was estimated by using the colorimetric MTT assay. The MTT assay (Mosmann (1983) J. Immunol Methods 65: 55–63) measures mitochondrial reductase activity and serves for quantitative assessment of cellular viability. Drug concentration that causes 50% reduction in cell viability in comparison to the control group, is defined as EC50. The EC50 values of the tested DP-BFA compounds were calculated from dose response curves established for each of the different assayed cell lines.
# (§3) Each EC50 value is an average of EC50 values derived from 1–5 independent experiments.
# [2] = system: U937 myeloid leukemia cell line; assay: MTT cytotoxicity, U937; type: cell-based, human; conditions: U937, three days, read-out: EC50 (50% reduction in cell viability)
# Experimental: as §1, §2, §3
# C6 glioma cell line = assay: MTT cytotoxicity, C6 glioma; type: cell-based, rat; conditions: three days, read-out: EC50 (50% reduction in cell viability)
# Experimental: as §1, §2, §3
# [3] = system: Primary bronchial epithelial cells; assay: MTT cytotoxicity, normal primary epithelial cells; type: cell-based, human; conditions: Normal primary epithel, three days, read-out: EC50 (50% reduction in cell viability)
# Experimental: as §1, §2, §3
# [4] = system: Caco-2 colon cancer cell line; assay: MTT cytotoxicity, Caco-2; type: cell-based, human; conditions: Caco-2, three days, read-out: EC50 (50% reduction in cell viability)
# Experimental: as §1, §2, §3
# [5] = system: blood brain barrier (BBB); assay: BBB permeability to EB-albumin and Fluorescein in normal rat brains; type: in vivo; conditions: compounds at EC50 (Mannitol 25%); for % EB/g brain: control 0.04 ± 0.01; for Brain fluorescein uptake (% of serum F-Na level): control 0.3 ± 0.08; for Ratio F-Na/EB (mean of individual ratios): control 9.5 ± 1.6
# Excerpt: The effect of various DP-BFAs on BBB permeabilization to molecules of different sizes was examined in vivo in the model system of normal rat brains.
# The transport of two markers was followed: a) Evans blue bound to albumin (MW 70 kD) as an indicator for paracellular transport; and b) Fluorescein sodium salt (MW 376 D) that represents small size molecules.
# The Evans blue dye (EB) and Fluorescein sodium salt (F—Na) were infused into the artery carotis externa over 30 seconds according to the protocol described above in Example 17. The test compounds were used at their EC50 concentrations. Control animals were treated with vehicle solution.
# Evans blue extravasation is expressed as the percentage of the total amount of EB accumulated per one gram of brain tissue. The transport of fluorescein into the brain, which is dependent on the serum concentration of this molecule, is presented as percentage of the F—Na level in the serum.
# [6] = system: Neuro2a neuroblastoma cell line; assay: MTT cytotoxicity, Neuro2a; type: cell-based, mouse; conditions: three days, read-out: EC50 (50% reduction in cell viability)
# Experimental: as §1, §2, §3
# [7] = system: SKBR-3 breast cancer cell line; assay: MTT cytotoxicity, SKBR-3; type: cell-based, human; conditions: three days, read-out: EC50 (50% reduction in cell viability)
# Experimental: as §1, §2, §3
# [8] = system: blood brain barrier (BBB); assay: BBB permeabilization in rats, Evans blue extravasation into brain; type: in vivo, Sprague-Dawley rats; conditions: Table 6; for μg EB/g brain (at EC50): at EC50 (Mannitol at 25%)
# Excerpt: Permeabilization of the BBB by DP-BFA was investigated in rat model system by monitoring accumulation in the brain of two markers: a) Evans blue dye (EB), which rapidly binds in vivo with albumin (NW 70 kD) and is an indicator for paracellular transport; and b) Fluorescein sodium salt (F—Na), MW 376 D, which is transported via the cellular space, and enables monitoring transcellular transport. Upon BBB disruption the Evans blue-albumin complex irreversibly accumulates in the intercellular space of the brain. The much smaller tracer fluorescein may be transported intracellularly to occupy both inter and intracellular space in the brain.
# Blood brain barrier permeabilization in Sprague-Dawley rats was induced by brief exposure to DP-BFA. The animals were anesthetized with Rampun-Imalgen and DP-BFA test compounds were administered via the external carotid artery retrograde to the brain (Smith, Q. R. Methods of study. In: Physiology and Pharmacology of the Blood-Brain Barrier. Ed. Bradbury M. W. B. Spinger-Verlag. Berlin-Heidelberg-NY; 1992: 24–52). The pterygo-palathina artery was ligated to avoid escape of infused solutions towards the external head vasculature. DP-BFA solutions were infused over a period of 30 seconds or half an hour, using a Harvard Apparatus Syringe Pump. Blood flow through carotid communis artery was interrupted only at the time of infusion.
# All tested DP-BFA molecules were prepared from stock solutions in either water or ethanol by diluting 200–1000 fold into solution of isosmotic mannitol (5%) in Tromethamine buffer (Sigma) or PBS (pH 7.4)
# The markers, Evans blue (EB, 25 mg/ml) and fluorescein (F—Na, 12.5 mg/ml), in 1 ml solution, were injected intravenously immediately following administration of the tested DP-BFA, or after a specific time interval if reversibility of action was investigated. Supportive i.v. infusion of F—Na (12.5 mg/ml–100 μl/min) was performed for 8 minutes. Brains were washed with saline solution (60 ml) 10 min after the intracarotid “flash”. Brain ipsilateral and contralateral hemispheres and tumors, where applicable, were homogenized separately with 50% trichloroacetic acid (TCA). The markers concentrations in the cortex and in tumors, where, applicable, were determined spectrofluorometrically (Uyama, O. et al., (1988) J. Cereb. Blood Flow Metab. 8, 282–284: Abraham et al., (1996) Neurosci. Lett. 208, 85–88). The markers content was calculated as μg marker per one-gram brain tissue. Standard error and Student's test for statistical significance were used.
# The experiment was carried out on male Sprague-Dawley rats weighing 250–320 g. The procedure described above in Example 17 was followed.
# The effect of the tested compounds on the BBB opening was evaluated by two parameters:
# a) efficacy—The degree of BBB opening estimated in terms of accumulation of Evans Blue albumin (μg EB/g brain tissue); and
# b) potency—measured in terms of EC50 and minimal effective concentration (MEC) values. EC50 is the concentration of a tested compound producing 50% of the maximal effect of Evans Blue extravasation.
# The effect of various DP-BFAs on BBB permeability was tested in the model system of rat brains, as described above in Example 17. Efficacy, namely the level of the BBB opening was expressed as the amount of Evans blue accumulated in the brain (μg EB/g brain). Potency of the tested molecules was estimated by their calculated EC50 and minimal effective concentration (MEC) values.
# Primary fibroblasts = assay: MTT cytotoxicity, normal primary fibroblasts; type: cell-based, human; conditions: three days, read-out: EC50 (50% reduction in cell viability)
# Experimental: as §1, §2, §3
# [9] = system: blood tumor barrier (BTB) of C6 glioma; assay: BTB opening in C6 glioma-bearing rats, Evans blue accumulation in tumor; type: in vivo, Sprague Dawley rats; conditions: for Specificity Tumor/Non-tumor (T/NT): ratio of EB accumulated in tumor and non-tumor brain
# Experimental: (§4) In order to study the ability of DP-BFA compounds to modulate blood tumor barrier (BTB), a model system of C6 glioma-bearing rats, was employed.
# (§5) Sprague Dawley (SD) rats were inoculated with C6 gliosarcoma cells following the procedure described by Bartus et al. (Exp Neurol (1996); 142:14–28). A small burr-hole was made in the frontal scalp bone of the rat fixed in a stereotaxis apparatus. Using a Hamilton syringe, 10 μl or 5 μl of media, containing 2.5×10^5 C6 gliosarcoma cells were inoculated into the frontal cortex. Coordinates were 1 mm posterior of bregma, 2.5 mm—lateral, and 3 mm—depth. The needle remained in the place for 5 min. After removal of the needle, fascia and scalp were sutured. The rats were checked 6–8 days after inoculation, when tumors of sufficient size (20–60 mg) had developed. The tumor was weighed after F—Na visualization and dissection. Parts of the rats' brains were subject to histological examinations and monitored for Evans Blue and Fluorescein uptake into ipsilateral tumour tissue, peritumoural tissue and contralateral tissue.
# (§6) The bilateral tumor model system of C6 glioma-bearing rats described in Example 23 above was employed for screening of various derivatives of DP-BFA for their ability to permeabilize the blood brain barrier (BBB) in comparison to their effect on the blood tumor barrier (BTB). The experimental procedure described in Example 23 was followed except that the tumor-bearing rats were further treated with DP-BFA. The tested compounds, at concentrations around their EC50 values, were unilaterally infused into the external carotis artery over 30 seconds as described in Example 17. Animals treated with vehicle only serve as a control group. Permeabilization effect was quantitated by measuring accumulation of albumin bound Evans blue dye in tumor (T) versus non-tumor (NT) tissues.
# (§7) Specificity index is defined as the ratio between the levels of EB accumulated in tumor and those accumulated in non-tumor brain tissues (T/NT).
# [10] = system: blood tumor barrier / blood brain barrier; assay: Unilateral administration in rats with bilateral C6 gliomas, Evans blue staining of brain sections; type: in vivo, SD rats; conditions: 10 μM 3,12-DEG-HPO4Na; 40 μM 3,12-Na; 25% mannitol; unilateral infusion
# Experimental: FIGS. 2A–C depict Evans blue accumulation in brain sections of rats bearing bilateral gliomas following unilateral administration of a compound as follows: 10 μM 3,12-DEG-HPO4Na (FIG. 2A), 40 μM 3,12-Na (FIG. 2B) or mannitol 25% (FIG. 2C).
# Evans Blue and Fluoroscein penetration into gliomas tumors was examined following unilateral infusion into the external carotis artery of either 10 μM 3,12-DEG-HPO4Na (FIG. 2A), 40 μM 3,12-Na BFA (FIG. 2B) or 25% mannitol (FIG. 2C). The relevant compound was infused into rat brains at 9 to 12 days following inoculation of C6 glioma cells as described in Example 23.
# [11] = system: blood brain barrier (BBB); assay: BBB opening in C6 glioma-bearing rats, Evans blue accumulation in non-tumor brain; type: in vivo, Sprague Dawley rats; conditions: concentrations around EC50 (Mannitol 25%), unilateral 30 s infusion
# Experimental: as §4, §5, §6, §7
"EC50 ([8]; rat brains, Evans blue extravasation, read-out: EQ50 (the source's name))",SMILES,EC50 [1],EC50 [2],EC50 (C6 glioma cell line),EC50 [3],EC50 [4],% EB/g brain [5],Brain fluorescein uptake (% of serum F-Na level) [5],Ratio F-Na/EB (mean of individual ratios) [5],EC50 [6],EC50 [7],μg EB/g brain (at EC50) [8],MEC (minimal effective concentration) ([8]; concentration giving 3 μg EB/g brain),EC50 (Primary fibroblasts),"BTB EB μg/g Tumor ([9]; concentrations around EC50 (Mannitol 25%), unilateral 30 s infusion)",Specificity Tumor/Non-tumor (T/NT) [9],Specificity Tumor/Non-tumor (T/NT) ([9]; listed as mannitol),Ratio F-Na/EB (mean of individual ratios) ([5]; listed as mannitol),"Evans Blue staining of tumor and non-tumor brain (FIG. 2, in words) [10]",BBB EB μg/g Non-tumor brain [11]
54 ± 5 µM,"CCCCCCCCCCCCC(CCC)OCCOCCOP(=O)([O-])[O-].[Na+].[Na+] (stereo not drawn) [3,12-(ether)-DEG-PO4Na2, 2(4-Hexadecanoxy)ethoxyethyl Disodium Phosphate]",68 µM,10 µM,40 µM,> 200 µM,47 µM,4 ± 0.8%,4.4 ± 0.9 % of the F—Na level in the ser,1.1 and 1.1 ± 0.2,37 µM,58 µM,26 μg EB/g brain and 26 ± 5.2 μg EB/g brain,7.3 ± 1.4 µM,65 µM,–,–,–,–,–,–
–,"OC[C@@H](O)[C@@H](O)[C@H](O)[C@H](O)CO [Mannitol, mannitol, reference compound]",–,–,–,–,–,0.6 ± 0.21%,2.4 ± 0.4 % of the F—Na level in the ser,4.0 ± 0.5,–,–,10 ± 2 μg EB/g brain,–,–,12 ± 2 µg/g,2.1 ± 0.5,about twice,4,equally permeabilized tumor and non-tumor brain tissues,7 ± 2 µg/g

# Source: patent US7186703B2, “Derivatives of branched-chain lipophilic molecules and uses thereof” (D-Pharm Ltd., priority 2000, dated 2007)
